# Results reported in patent US8148425B2, “Pharmaceutical composition containing phloroglucinol and paracetamol” (Promindus (Actions Promotionnelles Dans l'Industrie et le …, priority 2007, dated 2012).
# “And” between values parts separate entries of the source, which are not always exact repeats. Identical values can stand only once.
# Tested on: painful spasm caused by intraperitoneal injection of phenylbenzoquinone in mice
# Experiment: Siegmund test or Writhing test (phenylbenzoquinone-induced painful spasm)
# Type: in vivo, mice (male, Swiss strain)
# Conditions: esophageal tube, 30 min before phenylbenzoquinone
# Description: During said tests, the antispasmodic and analgesic activity of phloroglucinol, of paracetamol, and of phloroglucinol combined with paracetamol was evaluated using the Siegmund test or “Writhing test”. The principle of this test, which is familiar to those skilled in the art, is briefly summarized hereinafter. The intraperitoneal injection of phenylbenzoquinone in mice causes a painful spasm, which can be reduced with antispasmodic substances (causal medication) and analgesic substances (symptomatic medication).
# The test was carried out on batches of 10 male mice, of the Swiss strain, having an average weight of 22 g±2. The spasmodic and painful syndrome caused by the intraperitoneal injection of 0.25 ml of the phenylbenzoquinone solution is characterized by hind limb stretching movements and dorso-abdominal musculature twisting movements, which accounted for a period of time of 30 min, starting from 15 min following the administration of the phenylbenzoquinone.
# An antispasmodic and analgesic effect manifests itself through a reduction in the number of spasmodic attacks, which is dependent on the dose. For each test, the substance being studied is administered by means of an esophageal tube, 30 min before the phenylbenzoquinone.
# For experimental ease, the following were used: • phloroglucinol Lyoc (lyophilizate), and • effervescent paracetamol (tablet); the two substances being perfectly soluble and miscible.
# To test the products administered in isolation (prior art), on the one hand, phloroglucinol lyocs (lyophilized systems) were dissolved in distilled water, and on the other hand, effervescent paracetamol tablets were solubilized in distilled water (the solution obtained has a pH of 5).
# To test the pharmaceutical compositions of the invention, such phloroglucinol lyocs (lyophilized systems) and such effervescent paracetamol tablets were dissolved and solubilized together. The solution which contains the two active ingredients itself also has a pH of 5.
# Given the metabolism in this animal species, the mouse, which is more accelerated than in humans, those skilled in the art, specialists in pharmacology, most commonly use doses which are multiples of the human dose in order to be able to readily objectivize the results.
# The results are expressed as percentage of inhibition of the spasm and of the pain relative to control animals which receive only 20 ml/kg of distilled water.
Compound,"% inhibition of the spasm and of the pain relative to control animals (paracetamol 50 mg/kg, mice (repeated in each of four series))","% inhibition of the spasm and of the pain relative to control animals (phloroglucinol 40 mg/kg, mice)","% inhibition of the spasm and of the pain relative to control animals (phloroglucinol 80 mg/kg, mice)","% inhibition of the spasm and of the pain relative to control animals (phloroglucinol 100 mg/kg, mice)","% inhibition of the spasm and of the pain relative to control animals (phloroglucinol 120 mg/kg, mice)"
"CC(=O)Nc1ccc(O)cc1 [Paracetamol, 4-acetylaminophenol]",40% and 39% and 37%,,,,
"Oc1cc(O)cc(O)c1 [Phloroglucinol, 1,3,5-trihydroxy-benzene]",,7%,21%,27%,32%
